Marks after values point to notes of the source that are not given here.
What was measured:
BRD4 (BDI_K57-E168) = BRD4 (BDI_K57-E168) (Homo sapiens (Human), UniProt O60885); assay: TR-FRET bromodomain binding assay, BRD4 first bromodomain; conditions: His-tagged BD1, 100 nM Alexa647 probe
Outline: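 His-tagged BRD4 BD1 or BD2 (8 nM) with Eu-anti-His antibody (1 nM) and Alexa647-labelled BET-inhibitor probe (100 nM BDI, 30 nM BDII); 50 μM−0.85 nM compound, 2% DMSO, phosphate buffer pH 6.0, 1 h at room temperature. TR-FRET IC50 by 4-parameter fit, converted to Ki using probe Kd.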

[1] = system: MV4-11 human AML xenograft; assay: Xenograft tumor growth inhibition assay, MV4-11; type: in vivo, mice; conditions: MV4-11 xenograft
Protocol: (§1) The effect of the compound of Example 40 to inhibit the growth of Ramos, OPM-2, MX-1, MV4-11, and HT1080 xenograft tumors was evaluated. Briefly, 0.5×10^6 human cancer cells (HT1080), 1×10^6 human cancer cells (Ramos), 5×10^6 human cancer cells (OPM-2, MV4-11) or 1:10 tumor brie (MX-1) (in S-MEM (MEM, Suspension, no Calcium, no Glutamine)) (Life Technologies Corporation) were inoculated subcutaneously into the right hind flank of female SCID or SCID-beige (MV4-11, HT1080) mice (Charles Rivers Labs) on study day 0. Compound was formulated in 2% EtOH, 5% Tween-80, 20% PEG-400, 73% HPMC (Ramos, OPM-2 and MX-1) or 5% DMSO, 5% EtOH, 30% PEG400, 60% Phosal 53 (MV4-11, HT1080). Administration of compound was initiated at the time of size match on day 8 (HT1080), day 17 (MX-1), or day 18 (Ramos, MV4-11, OPM-2). The tumors were measured by a pair of calipers twice a week starting at the time of size match and tumor volumes were calculated according to the formula V=L×W^2/2 (V: volume, mm^3; L: length, mm. W: width, m) Tumor volume was measured for the duration of the experiment until the mean tumor volume in each group reached an endpoint of >1000 mm^3.

[2] = system: HT1080 human fibrosarcoma xenograft; assay: Xenograft tumor growth inhibition assay, HT1080; type: in vivo, mice; conditions: BID x 14, based on day 18
Protocol: as §1

Raji = assay: Proliferation panel assay, Raji; type: cell-based; conditions: Homo sapiens, 120 h, Burkitt lymphoma, 5 days, read-out: Cellular Proliferation EC50
Protocol: (§2) The impact of compounds of the Examples on cancer cell proliferation was determined using the breast cancer cell line MX-1 (ATCC) in a 3-day proliferation assay. MX-1 cells were maintained in RPMI supplemented with 10% FBS at 37 C.° and an atmosphere of 5% CO2. For compound testing, MX-1 cells were plated in 96-well black bottom plates at a density of 5000 cells/well in 90 μl of culture media and incubated at 37° overnight to allow cell adhesion and spreading. Compound dilution series were prepared in DMSO via a 3-fold serial dilution from 3 mM to 0.1 μM. […]
(§3) Luminescence readings from the Cell Titer Glo assay were normalized to the DMSO treated cells and analyzed using the GraphPad Prism software with sigmoidal curve fitting to obtain EC50s. The minimum significant ratio (MSR) was determined to evaluate assay reproducibility (Eastwood et al., (2006) J Biomol Screen, 11: 253-261). The overall MSR was determined to be 2.1 and a moving MSR (last six run MSR overtime) has been <2.
(§4) The compound of Example 40 was tested for its impact on proliferation of a panel of cancer cell line types (with specific cell lines tested) as set out in (Table 2). […] Cell proliferation data were analyzed as described above in the MX-1 proliferation assay to obtain the EC50 for the compounds reported in Table 2.

786-0 = assay: Proliferation panel assay, 786-0; type: cell-based; conditions: Homo sapiens, 120 h; RCC, 786-0, 5 days; read-out: Cellular Proliferation EC50
Protocol: as §2, §3, §4

DLD-1 = assay: Proliferation panel assay, DLD-1; type: cell-based; conditions: Homo sapiens, 120 h; Colon, DLD-1, 5 days; read-out: Cellular Proliferation EC50
Protocol: as §2, §3, §4

H1299 = assay: Proliferation panel assay, H1299; type: cell-based; conditions: Homo sapiens, NCI-H1299, 120 h; NSCLC, H1299, 5 days; read-out: Cellular Proliferation EC50
Protocol: as §2, §3, §4

H1975 = assay: Proliferation panel assay, H1975; type: cell-based; conditions: Homo sapiens, NCI-H1975, 120 h; NSCLC, H1975, 5 days; read-out: Cellular Proliferation EC50
Protocol: as §2, §3, §4

`Cc1[nH]c(-c2cc(NS(C)(=O)=O)ccc2Oc2ccccc2)c2c1C(=O)CCC2` [Example 40, N-[3-(3-methyl-4-oxo-4,5,6,7-tetrahydro-2H-isoindol-1-yl)-4-phenoxyphenyl]methanesulfonamide] was tested. Which Ki (BRD4 (BDI_K57-E168)) did it give?
The Ki was 0.015 µM.

What about the mortality ([1]; 25 mg/kg/day PO, BID x 14) of the same compound?
Its mortality is “^b10% mortality”.

What about the “% TGI (tumor growth inhibition)” value ([1]; 25 mg/kg/day PO, BID x 14, based on day 31) of the same compound?
Its value is 14^b %.

And the mortality ([1]; 50 mg/kg/day PO, BID x 14)?
Its mortality is “^c30% mortality”.

And the “% TGI (tumor growth inhibition)” value ([1]; 50 mg/kg/day PO, BID x 14, based on day 31)?
The value was 42^c** %.

What about the mortality ([1]; 100 mg/kg/day PO, BID 5 on, 3 off x 2) of the same compound?
The mortality was “^d40% mortality”.

And the “% TGI (tumor growth inhibition)” value ([1]; 100 mg/kg/day PO, BID 5 on, 3 off x 2, based on day 31)?
Its value is 67^d** %.

And the “% TGI (tumor growth inhibition)” value ([2]; 10 mg/kg/day PO)?
Its value is −1%.

And the “% TGI (tumor growth inhibition)” value ([2]; 30 mg/kg/day PO)?
Its value is 14%.

And the “% TGI (tumor growth inhibition)” value ([2]; 100 mg/kg/day PO)?
The value was 52** %.

And the EC50 (Raji)?
The EC50 was 0.036 µM.

What about the EC50 (786-0) of the same compound?
The EC50 was 0.139 µM.

And the EC50 (DLD-1)?
Its EC50 is 0.45 µM.

What about the EC50 (H1299) of the same compound?
Its EC50 is 0.36 µM.

What about the EC50 (H1975) of the same compound?
The EC50 was 0.18 µM.

From patent US9776990B2, “Isoindolone derivatives” (AbbVie Inc., priority 2012, dated 2017)
